The NIST ThermoML archive (doi:10.1016/j.tca.2010.09.004)
Numbers after ± are expanded uncertainties.

Details: 101.33 kPa, Liquid; for speed of sound: Sing-around technique in a fixed-path interferometer; for mass density: Vibrating tube method

Row | Structure (SMILES) | speed of sound (293.15 K) [m/s] | mass density (293.15 K) [kg/m3] | speed of sound (298.15 K) [m/s] | mass density (298.15 K) [kg/m3] | speed of sound (303.15 K) [m/s] | mass density (303.15 K) [kg/m3]
1 | CCCCNCCCC [dibutylamine] | 1261.2 ± 1 | 759.571 ± 0.2 | 1241.3 ± 1 | 755.457 ± 0.2 | 1222.5 ± 1 | 751.329 ± 0.21
2 | CCN(CC)CC [triethylamine] | 1132.8 ± 1 | 727.515 ± 0.22 | 1111.1 ± 1 | 722.822 ± 0.22 | 1090.7 ± 1 | 718.201 ± 0.22
3 | CCCNCCC [dipropylamine] | 1209.2 ± 1.4 | 738.188 ± 0.32 | 1187.7 ± 1.3 | 733.683 ± 0.32 | 1167.1 ± 1.3 | 729.087 ± 0.32
4 | CCC(C)=O [butanone] | 1212.3 ± 1 | 805.351 ± 0.19 | 1191 ± 1 | 800.077 ± 0.19 | 1170.8 ± 1 | 794.779 ± 0.19
